Data from ChEMBL document CHEMBL3351452, “Chemical synthesis, cytotoxicity, selectivity and bioavailability of 5α-androstane-3α,17β-diol derivatives” (Bioorg Med Chem, 2014).

How the values were obtained:
[1] = Cytotoxicity against mouse WEHI13 cells assessed as cell proliferation after 48 hrs by MTT assay; format: cell-based; settings: WEHI13, 48 h
HL-60 = assay: Antiproliferative activity against human HL-60 cells assessed as reduction in cell growth after 24 hrs by MTS assay; format: functional, cell-based; settings: HL-60, 24 h
MCF7 = assay: Antiproliferative activity against human MCF7 cells assessed as reduction in cell growth after 24 hrs by MTS assay; format: functional, cell-based; settings: MCF7, 24 h
T47D = assay: Antiproliferative activity against human T47D cells assessed as reduction in cell growth after 24 hrs by MTS assay; format: functional, cell-based
LNCaP = assay: Antiproliferative activity against human LNCAP cells assessed as reduction in cell growth after 24 hrs by MTS assay; format: functional, cell-based
[2] = Plasma concentration in Sprague-Dawley rat at 2.3 mg/kg, sc measured at 3 hrs by LC/MS/MS analysis; format: ADME, organism-based; parameters: dose 2.3 mg/kg, route subcutaneous
[3] = Plasma concentration in Sprague-Dawley rat at 2.3 mg/kg, sc measured at 12 hrs by LC/MS/MS analysis; format: ADME, organism-based; parameters: dose 2.3 mg/kg, route subcutaneous

SMILES	IC50 [1] [nM]	IC50 (HL-60) [nM]	IC50 (MCF7) [nM]	IC50 (T47D) [nM]	IC50 (LNCaP) [nM]	concentration at 3 h [2] [ng/mL]	concentration at 12 h [3] [ng/mL]
C[C@]12CC[C@@H](O)C[C@@H]1CC[C@@H]1[C@@H]2CC[C@]2(C)[C@@H](O)CC[C@@H]12 [ANDROSTANDIOL]	> 10000						
C[C@]12C[C@H](N3CCN(C(=O)[C@@H]4CCCN4C(=O)C4CCCCC4)CC3)[C@@H](O)C[C@@H]1CC[C@@H]1[C@@H]2CC[C@]2(C)[C@@H](O)CC[C@@H]12	2700						
C[C@]12C[C@H](N3CCN(C(=O)[C@@H]4CCCN4C(=O)c4cccc5ccccc45)CC3)[C@@H](O)C[C@@H]1CC[C@@H]1[C@@H]2CC[C@]2(C)[C@@H](O)CC[C@@H]12		3700	4800	5000	300		
C[C@]12C[C@H](N3CCN(C(=O)[C@@H]4CCCN4C(=O)c4cccc5ccccc45)CC3)[C@@H](O)C[C@@H]1CC[C@@H]1[C@@H]2CC[C@]2(C)C(=O)CC[C@@H]12		8500	8000	7000	10000		
C[C@]12C[C@H](N3CCN(C(=O)[C@@H]4CCCN4C(=O)c4ccc5ccccc5n4)CC3)[C@@H](O)C[C@@H]1CC[C@@H]1[C@@H]2CC[C@]2(C)C(=O)CC[C@@H]12		600	1000	700	800	188	0.3
C[C@]12C[C@H](N3CCN(C(=O)[C@@H]4CCCN4C(=O)c4cc5ccccc5[n+]([O-])c4)CC3)[C@@H](O)C[C@@H]1CC[C@@H]1[C@@H]2CC[C@]2(C)[C@@H](O)CC[C@@H]12		800	900	1000	> 10000	158	2.9
C[C@]12C[C@H](N3CCN(C(=O)[C@@H]4CCCN4C(=O)c4ccc5ncccc5c4)CC3)[C@@H](O)C[C@@H]1CC[C@@H]1[C@@H]2CC[C@]2(C)[C@@H](O)CC[C@@H]12		4700	4900	7000	> 10000	194	1.3
C#C[C@]1(O)CC[C@H]2[C@@H]3CC[C@H]4C[C@H](O)[C@@H](N5CCN(C(=O)[C@@H]6CCCN6C(=O)c6cccc7ccccc67)CC5)C[C@]4(C)[C@H]3CC[C@@]21C		7000	2300	8000	12000		
C[C@]12C[C@H](N3CCN(C(=O)[C@@H]4CCCN4C(=O)c4cc5ccccc5cn4)CC3)[C@@H](O)C[C@@H]1CC[C@@H]1[C@@H]2CC[C@]2(C)[C@@H](O)CC[C@@H]12	3000	1400	100	200	70	123	2.7
C#C[C@]1(O)CC[C@H]2[C@@H]3CC[C@H]4C[C@H](O)[C@@H](N5CCN(C(=O)[C@@H]6CCCN6C(=O)c6ccc7ccccc7c6)CC5)C[C@]4(C)[C@H]3CC[C@@]21C	1700	1900	300	300	4500	185	50.2
CO[C@H]1CC[C@H]2[C@@H]3CC[C@H]4C[C@H](O)[C@@H](N5CCN(C(=O)[C@@H]6CCCN6C(=O)c6ccc7ccccc7c6)CC5)C[C@]4(C)[C@H]3CC[C@]12C		4500	4500	5000	7000	33.3	7.6
COc1cccc2c1C(=O)c1c(O)c3c(c(O)c1C2=O)C[C@@](O)(C(=O)CO)C[C@@H]3O[C@H]1C[C@H](N)[C@H](O)[C@H](C)O1 [DOXORUBICIN]	20	700	> 10000	700	200		
C[C@]12C[C@H](N3CCN(C(=O)[C@@H]4CCCN4C(=O)c4cnc5ccccc5c4)CC3)[C@@H](O)C[C@@H]1CC[C@@H]1[C@@H]2CC[C@]2(C)[C@@H](O)CC[C@@H]12		4000	1200	7000	> 10000	163	2.3
C[C@]12C[C@H](N3CCN(C(=O)[C@@H]4CCCN4C(=O)c4ccc5ccccc5c4)CC3)[C@@H](O)C[C@@H]1CC[C@@H]1[C@@H]2CC[C@]2(C)[C@@H](O)CC[C@@H]12	> 10000	400	500	400	1600	64.8	8.8
C[C@]12C[C@H](N3CCN(C(=O)[C@@H]4CCCN4C(=O)c4ccc5ccccc5n4)CC3)[C@@H](O)C[C@@H]1CC[C@@H]1[C@@H]2CC[C@]2(C)[C@@H](O)CC[C@@H]12		1600	100	100	40	163	3.1
C[C@]12C[C@H](N3CCN(C(=O)[C@@H]4CCCN4C(=O)c4ccc5ccccc5c4)CC3)[C@@H](O)C[C@@H]1CC[C@@H]1[C@@H]2CC[C@@]2(C)[C@H]1CC[C@]2(C)O		4700	1200	2000	> 10000	122	32
